Measured values taken from PMC5695136 (Theranostics, 2017).

Columns and labels:
[1] = First in-human PET/CT imaging; format: in vivo; conditions: mean SUV averaged over right and left side and all patients (three patients)
[2] = test system: PSMA+ LNCaP cells; conditions: equal experimental set up; cited from earlier work

## O=C([O-])CN(CCN(CC(=O)[O-])Cc1cc(CCC(=O)NCCCCCC(=O)NCCCC[C@H](NC(=O)N[C@@H](CCC(=O)O)C(=O)O)C(=O)O)ccc1[O-])Cc1cc(CCC(=O)O)ccc1[O-].[68Ga+3].[OH3+] [[^68Ga]Ga-PSMA-11]
[1]
  SUV kidneys: 30.5
[2]
  Internalization±SD: 9.47±2.56 %IA/10^6 cells
